Laboratory results taken from patent US9029378B2, “Substituted bicyclic aromatic carboxamide and urea compounds as vanilloid receptor ligands” (Gruenenthal GmbH, priority 2011, dated 2015).

Target: T1, vanilloid receptor 1 (VR1/TRPV1 receptor) (Homo sapiens, UniProt Q8NER1)
T1 construct: expressed in transfected cells; host or cells: CHO K1
Experiment: Functional testing on the vanilloid receptor 1 (FLIPR Ca2+ influx assay, capsaicin)
Assay type: cell-based, human being
Details: @5 μM; Cap=capsaicin; read-out: inhibition (as a percentage), (f) (human being) Cap
Protocol: Furthermore, preference may be given to compounds according to the invention that cause a 50 percent displacement of capsaicin, which is present at a concentration of 100 nM, in a FLIPR assay with CHO K1 cells which were transfected with the human VR1 gene at a concentration of less than 2,000 nM, preferably less than 1,000 nM, particularly preferably less than 300 nM, most particularly preferably less than 100 nM, even more preferably less than 75 nM, additionally preferably less than 50 nM, most preferably less than 10 nM.
In the process, the Ca^2+ influx is quantified in the FLIPR assay with the aid of a Ca^2+-sensitive dye (type Fluo-4, Molecular Probes Europe BV, Leiden, the Netherlands) in a fluorescent imaging plate reader (FLIPR, Molecular Devices, Sunnyvale, USA), as described hereinafter.
Pharmacological Methods I. Functional Testing Carried Out on the Vanilloid Receptor 1 (VR1/TRPV1 Receptor) […]
The number of cells in the suspension is set to 3×10^5 per mL and 150 μL of this suspension are in each case introduced into a recess in the cell culture plates coated as described hereinbefore. In the incubator the plates are left for two to three days at 37° C., 5% by volume of CO2 and 95% relative humidity. Subsequently, the cells are loaded with 2 μM of Fluo-4 and 0.01% by volume of Pluronic F127 (Molecular Probes Europe BV, Leiden, the Netherlands) in HBSS buffer (Hank's buffered saline solution, Gibco Invitrogen GmbH, Karlsruhe, Germany) for 30 min at 37° C., washed 3 times with HBSS buffer and after further incubation for 15 minutes at room temperature used for Ca^2+ measurement in a FLIPR assay. The Ca^2+-dependent fluorescence is in this case measured before and after the addition of substances (λex=488 nm, λem=540 nm). Quantification is carried out by measuring the highest fluorescence intensity (FC, fluorescence counts) over time.
The FLIPR protocol consists of 2 substance additions. First the compounds to be tested (10 μM) are pipetted onto the cells and the Ca^2+ influx is compared with the control (capsaicin 10 μM). This provides the result in % activation based on the Ca^2+ signal after the addition of 10 μM of capsaicin (CP). After 5 minutes' incubation, 100 nM of capsaicin are applied and the Ca^2+ influx is also determined.
Desensitising agonists and antagonists lead to suppression of the Ca^2+ influx. The % inhibition is calculated compared to the maximum achievable inhibition with 10 μM of capsazepine. Triple analyses (n=3) are carried out and repeated in at least 3 independent experiments (N=4). Starting from the percentage displacement caused by different concentrations of the compounds to be tested of general formula I, IC50 inhibitory concentrations which cause a 50-percent displacement of capsaicin were calculated. Ki values for the test substances were obtained by conversion by means of the Cheng-Prusoff equation (Cheng, Prusoff; Biochem. Pharmacol. 22, 3099-3108, 1973).
The affinity of the compounds of to the invention for the vanilloid receptor 1 (VR1/TRPV1 receptor) was determined as described hereinbefore (pharmacological method I). The compounds of the invention display outstanding affinity to the VR1/TRPV1 receptor (Table 2). In Table 2 the abbreviations below have the following meanings: • Cap=capsaicin • AG=agonist • NE=no effect
The value after the “@” symbol indicates the concentration at which the inhibition (as a percentage) was respectively determined.

T1 sequence (Q8NER1 whole entry): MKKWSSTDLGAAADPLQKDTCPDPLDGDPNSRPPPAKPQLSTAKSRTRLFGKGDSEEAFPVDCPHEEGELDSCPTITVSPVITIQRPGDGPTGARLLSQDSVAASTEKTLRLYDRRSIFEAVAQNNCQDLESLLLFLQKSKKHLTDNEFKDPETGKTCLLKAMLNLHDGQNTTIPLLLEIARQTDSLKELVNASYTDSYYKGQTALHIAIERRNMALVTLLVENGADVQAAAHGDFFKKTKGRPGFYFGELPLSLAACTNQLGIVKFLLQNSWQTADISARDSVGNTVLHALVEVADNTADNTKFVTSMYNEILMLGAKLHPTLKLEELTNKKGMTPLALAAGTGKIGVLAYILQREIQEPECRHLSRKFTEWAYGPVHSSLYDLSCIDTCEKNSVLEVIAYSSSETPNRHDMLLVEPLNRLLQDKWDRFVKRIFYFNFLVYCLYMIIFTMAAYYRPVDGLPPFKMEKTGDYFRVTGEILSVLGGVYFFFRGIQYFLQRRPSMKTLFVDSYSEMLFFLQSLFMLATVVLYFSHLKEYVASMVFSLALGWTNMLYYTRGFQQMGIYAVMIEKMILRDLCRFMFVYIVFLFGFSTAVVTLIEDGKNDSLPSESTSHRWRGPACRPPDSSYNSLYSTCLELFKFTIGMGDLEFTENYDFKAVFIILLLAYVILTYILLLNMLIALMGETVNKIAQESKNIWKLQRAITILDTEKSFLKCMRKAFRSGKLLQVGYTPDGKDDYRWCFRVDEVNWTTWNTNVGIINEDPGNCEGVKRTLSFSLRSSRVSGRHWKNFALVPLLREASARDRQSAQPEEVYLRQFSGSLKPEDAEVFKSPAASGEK

inhibition at 5 µM	SMILES
45%	Cc1cc(NC(=O)NCc2ccc(C(F)(F)F)nc2N2CCC(C)CC2)c2cn[nH]c2c1 [Example 56, 1-(6-Methyl-1H-indazol-4-yl)-3-((2-(4-methylpiperidin-1-yl)-6-(trifluoromethyl)pyridin-3-yl)methyl)urea]

Same assay, conditions: Cap=capsaicin (100 nM); Ki from IC50 by Cheng-Prusoff equation; read-out: (f) Ki (human being) [nM] Cap

Ki	SMILES
4 nM	Cc1[nH]c2c(NC(=O)NCc3ccc(C(F)(F)F)nc3N3CCC(C)CC3)cccc2c1C [Example 37, 1-(2,3-Dimethyl-1H-indol-7-yl)-3-((2-(4-methylpiperidin-1-yl)-6-(trifluoromethyl)pyridin-3-yl)methyl)urea]
1 nM	CC1CCN(c2nc(C(F)(F)F)ccc2CNC(=O)Nc2cccc3[nH]ccc23)CC1 [Example 38, 1-(1H-Indol-4-yl)-3-((2-(4-methylpiperidin-1-yl)-6-(trifluoromethyl)pyridin-3-yl)methyl)urea]
5 nM	CC1CCN(c2nc(C(F)(F)F)ccc2CNC(=O)Nc2cccc3c2ccn3C)CC1 [Example 40, 1-(1-Methyl-1H-indol-4-yl)-3-((2-(4-methylpiperidin-1-yl)-6-(trifluoromethyl)pyridin-3-yl)methyl)urea]
8 nM	CC(=O)n1ccc2c(NC(=O)NCc3ccc(C(F)(F)F)nc3N3CCC(C)CC3)cccc21 [Example 41, 1-(1-Acetyl-1H-indol-4-yl)-3-((2-(4-methylpiperidin-1-yl)-6-(trifluoromethyl)pyridin-3-yl)methyl)urea]
2 nM	CC1CCN(c2nc(C(F)(F)F)ccc2CNC(=O)Nc2cccc3c2ccn3S(C)(=O)=O)CC1 [Example 42, 1-((2-(4-Methylpiperidin-1-yl)-6-(trifluoromethyl)pyridin-3-yl)methyl)-3-(1-(methylsulfonyl)-1H-indol-4-yl)urea]
8 nM	CC1CCN(c2nc(C(F)(F)F)ccc2CNC(=O)Nc2cccc3[nH]c(C(C)(C)C)cc23)CC1 [Example 43, 1-(2-Tert-butyl-1H-indol-4-yl)-3-((2-(4-methylpiperidin-1-yl)-6-(trifluoromethyl)pyridin-3-yl)methyl)urea]
0.4 nM	CC1CCN(c2nc(C(F)(F)F)ccc2CNC(=O)Nc2cccc3[nH]ncc23)CC1 [Example 44, 1-(1H-indazol-4-yl)-3-((2-(4-methylpiperidin-1-yl)-6-(trifluoromethyl)pyridin-3-yl)methyl)urea]
7 nM	CN(C)C1(c2ccccc2)CCN(c2nc(C(F)(F)F)ccc2CNC(=O)Nc2cccc3[nH]ncc23)CC1 [Example 45, 1-((2-(4-(dimethylamino)-4-phenylpiperidin-1-yl)-6-(trifluoromethyl)pyridin-3-yl)methyl)-3-(1H-indazol-4-yl)urea]
0.5 nM	CC1CCN(c2nc(C(F)(F)F)ccc2CNC(=O)Nc2cccc3c2cnn3C)CC1 [Example 46, 1-(1-Methyl-1H-indazol-4-yl)-3-((2-(4-methylpiperidin-1-yl)-6-(trifluoromethyl)pyridin-3-yl)methyl)urea]
2 nM	Cn1ncc2c(NC(=O)NCc3ccc(C(F)(F)F)nc3OCC3CCC3)cccc21 [Example 48, 1-((2-(Cyclobutylmethoxy)-6-(trifluoromethyl)pyridin-3-yl)methyl)-3-(1-methyl-1H-indazol-4-yl)urea]
13 nM	CC(=O)n1ncc2c(NC(=O)NCc3ccc(C(F)(F)F)nc3N3CCC(C)CC3)cccc21 [Example 49, 1-(1-Acetyl-1H-indazol-4-yl)-3-((2-(4-methylpiperidin-1-yl)-6-(trifluoromethyl)pyridin-3-yl)methyl)urea]
3 nM	CC1CCN(c2nc(C(F)(F)F)ccc2CNC(=O)Nc2cc(F)cc3[nH]ncc23)CC1 [Example 51, 1-(6-Fluoro-1H-indazol-4-yl)-3-((2-(4-methylpiperidin-1-yl)-6-(trifluoromethyl)pyridin-3-yl)methyl)urea]
2 nM	CC1CCN(c2nc(C(C)(C)C)ccc2CNC(=O)Nc2cc(F)cc3[nH]ncc23)CC1 [Example 52, 1-((6-Tert-butyl-2-(4-methylpiperidin-1-yl)pyridin-3-yl)methyl)-3-(6-fluoro-1H-indazol-4-yl)urea]
1 nM	CC1CCN(c2cc(C(F)(F)F)ccc2CNC(=O)Nc2cc(F)cc3[nH]ncc23)CC1 [Example 53, 1-(6-Fluoro-1H-indazol-4-yl)-3-(2-(4-methylpiperidin-1-yl)-4-(trifluoromethyl)benzyl)urea]
7 nM	O=C(NCc1ccc(C(F)(F)F)cc1C1CCCC1)Nc1cc(F)cc2[nH]ncc12 [Example 54, 1-(2-Cyclopentyl-4-(trifluoromethyl)benzyl)-3-(6-fluoro-1H-indazol-4-yl)urea]
4 nM	CC1CCN(c2nc(C(F)(F)F)ccc2CNC(=O)Nc2cc(Cl)cc3[nH]ncc23)CC1 [Example 55, 1-(6-Chloro-1H-indazol-4-yl)-3-((2-(4-methylpiperidin-1-yl)-6-(trifluoromethyl)pyridin-3-yl)methyl)urea]
3 nM	CC1CCN(c2nc(C(F)(F)F)ccc2CNC(=O)Nc2c(Cl)ccc3[nH]ncc23)CC1 [Example 57, 1-(5-Chloro-1H-indazol-4-yl)-3-((2-(4-methylpiperidin-1-yl)-6-(trifluoromethyl)pyridin-3-yl)methyl)urea]
3 nM	CC1CCN(c2nc(C(F)(F)F)ccc2CNC(=O)Nc2cccc3[nH]cnc23)CC1 [Example 58, 1-(1H-Benzo[d]imidazol-4-yl)-3-((2-(4-methylpiperidin-1-yl)-6-(trifluoromethyl)pyridin-3-yl)methyl)urea]
18 nM	CC1CCN(c2nc(C(F)(F)F)ccc2CNC(=O)Nc2cccc3scnc23)CC1 [Example 59, 1-(Benzo[d]thiazol-4-yl)-3-((2-(4-methylpiperidin-1-yl)-6-(trifluoromethyl)pyridin-3-yl)methyl)urea]
1 nM	CC1CCN(c2nc(C(F)(F)F)ccc2CNC(=O)Nc2cccc3ncsc23)CC1 [Example 60, 1-(Benzo[d]thiazol-7-yl)-3-((2-(4-methylpiperidin-1-yl)-6-(trifluoromethyl)pyridin-3-yl)methyl)urea]
1 nM	CC1CCN(c2cc(C(C)(C)C)ccc2CNC(=O)Nc2cccc3ncccc23)CC1 [Example 62, 1-(4-Tert-butyl-2-(4-methylpiperidin-1-yl)benzyl)-3-(quinolin-5-yl)urea]
0.7 nM	CC1CCN(c2cc(C(F)(F)F)ccc2CNC(=O)Nc2cccc3ncccc23)CC1 [Example 63, 1-(2-(4-Methylpiperidin-1-yl)-4-(trifluoromethyl)benzyl)-3-(quinolin-5-yl)urea]
1 nM	CC1CCN(c2nc(C(C)(C)C)ccc2CNC(=O)Nc2cccc3ncccc23)CC1 [Example 64, 1-((6-Tert-butyl-2-(4-methylpiperidin-1-yl)pyridin-3-yl)methyl)-3-(quinolin-5-yl)urea]
4 nM	CC(C)Oc1nc(C(F)(F)F)ccc1CNC(=O)Nc1cccc2ncccc12 [Example 65, 1-((2-Isopropoxy-6-(trifluoromethyl)pyridin-3-yl)methyl)-3-(quinolin-5-yl)urea]
2 nM	CC(C)(C)COc1nc(C(F)(F)F)ccc1CNC(=O)Nc1cccc2ncccc12 [Example 66, 1-((2-(Neopentyloxy)-6-(trifluoromethyl)pyridin-3-yl)methyl)-3-(quinolin-5-yl)urea]

SMILES	Ki
CN(C)C1(c2ccccc2)CCN(c2nc(C(F)(F)F)ccc2CNC(=O)Nc2cccc3[nH]ccc23)CC1 [Example 39, 1-((2-(4-(Dimethylamino)-4-phenylpiperidin-1-yl)-6-(trifluoromethyl)pyridin-3-yl)methyl)-3-(1H-indol-4-yl)urea]	8 nM
CCCCOc1nc(C(F)(F)F)ccc1CNC(=O)Nc1cccc2c1cnn2C [Example 47, 1-((2-Butoxy-6-(trifluoromethyl)pyridin-3-yl)methyl)-3-(1-methyl-1H-indazol-4-yl)urea]	3 nM
